Earlier results in patent publication EP0408384A1, “N,N'-dicarboxymethyl, N,N'-dicarbamoylmethyl diaminoalkane derivatives and their use in pharmaceutical compositions” (BRITISH TECHNOLOGY GROUP LIMITED, priority 1989, dated 1991).

Tested on: daunorubicin toxicity
Conditions: acute daunorubicin toxicity; literature report

| Compound | protection against the lethal effects of daunorubicin |
| --- | --- |
| CC(CN1CC(=O)NC(=O)C1)N1CC(=O)NC(=O)C1 (centres unmarked) [compound having R = CH₃ and R′ = R˝ = H] | give protection |
| O=C1CN(CCN2CC(=O)N(CN3CCOCC3)C(=O)C2)CC(=O)N1CN1CCOCC1 [bimolane] | give protection |
